Source: patent US20260284082A1, “TARGETING THE PANX1-P2Y2R-TRPV4 PATHWAY TO TREAT LUNG ISCHEMIA-REPERFUSION INJURY” (UNIVERSITY OF VIRGINIA PATENT FOUNDATION, priority 2023, published 2026)

What was measured:
[1] = dog, in vivo; cited from earlier work
[2] = test system: pulmonary endothelium of small PAs; assay: Endothelial Ca2+ signals in small PAs exposed ex vivo to acute hypoxia-reoxygenation (HR); type: cell-based; conditions: GSK219 100 nM; small PAs from TRPV4fl/fl mice, 1 h hypoxia + 10 min reoxygenation
Protocol: Ca^2+ imaging in Pas: Ca^2+ imaging in small Pas was performed as previously described.8 Fourth-order, small (~50 μm diameter) Pas (see FIG. 1B) were dissected from left lungs in cold HEPES-buffered physiological salt solution (HEPES-PSS; 10 mM HEPES, 134 mM NaCl, 6 mM KCl, 1 mM MgCl2 hexahydrate, 2 mM CaCl2) dihydrate, and 7 mM dextrose; pH adjusted to 7.4 using 1 M NaOH). Ca^2+ imaging studies were performed in en face preparations of small Pas incubated with Fluo-4 AM (10 μM) and pluronic acid (0.04%) at 37° C. for 10 minutes. For studies after sham or lung IR surgery, small Pas were immediately dissected out after the indicated reperfusion time and incubated en face with Fluo-4 AM. […] Fluo-4 was excited using a 488-nm solid-state laser, and emitted fluorescence was captured using a 525/36-nm band-pass filter. […] Baseline Ca^2+ signaling activity was recorded in the absence of CPA.
Analysis of baseline Ca^2+ signaling activity and TRPV4 sparklet activity in the pulmonary endothelium: Ca^2+ images acquired using the procedure described above were analyzed with custom-designed SparkAn software (source code available at https://github.com/vesselman/SparkAn).^10 Fractional fluorescence (F/F0) traces were obtained by placing a 1.7 μm2 (5×5 pixels) region of interest (ROI) at the peak event amplitude. […] Overall baseline Ca^2+ signals were automatically detected using a threshold of 1.25 F/F0. […]

SMILES: O=C(NC1(c2ccccc2)CC1)c1c(CN2CCC(N3CCCCC3)CC2)c(-c2cccc(C(F)(F)F)c2)nc2cc(Br)ccc12 [GSK219, GSK2193874]
- plasma half-life (t1/2) [1]: 31 h
- HR-induced increase in endothelial Ca2+ signals [2]: completely abolished
